From PMC6768028, “Synthesis, SAR and in vitro therapeutic potentials of thiazolidine-2,4-diones” (Chemistry Central Journal, 2018)
Converted amounts (≈) assume the structure as drawn.

Legend:
[1] = Antioxidant activity: free radical scavenging method by DPPH assay; conditions: for % inhibition (DPPH), 25 μg/ml / % inhibition (DPPH), 50 μg/ml / % inhibition (DPPH), 75 μg/ml / % inhibition (DPPH), 100 μg/ml: 30 min, 517 nm; for IC50 (antioxidant activity, DPPH): calculated via graph of % inhibition
Method: The antioxidant activity of the newly synthesized compounds were evaluated spectrophotometrically using free radical scavenging method by DPPH (2,2-diphenyl-1-picrylhydrazyl) assay. The DPPH is a stable free radical with maximal absorption at 517 nm and is reduced to a corresponding hydrazine when it reacting with hydrogen donors. […] DPPH solution (3 μg/ml) was prepared in methanol and DPPH (in 1:1) solution was used for blank reference. Four dilutions of different concentrations (25, 50, 75 and 100 μg/ml) of each synthesized compound and standard (ascorbic acid) were prepared in the methanol and 1 ml of each concentration was added to 1 ml of DPPH solution. The solution mixture was shaken vigorously and kept in dark place for 30 min at room temperature and absorbance was measured by UV at 517 nm. Percentage inhibition of Free radical DPPH was calculated as follows:1 %Inhibition=ABlank-ASample/ABlank×100 where, ABlank: absorbance of the blank reaction, ASample: absorbance of the test compound.

[2] = test system: α-amylase enzyme (diastase); test: Antidiabetic activity: α-amylase inhibitory activity using diastase, colorimetric method; type: biochemical; conditions: for IC50 (antidiabetic activity, α-amylase): calculated via graph of % inhibition
Method: All the synthesized compounds were evaluated against α-amylase inhibitory activity by using diastase based on colorimetric method. 0.25 g of soluble potato starch was dissolved in 50 ml of 20 mM phosphate buffer by heating for 15 min. 1 mg diastase (amylase enzyme) was mixed in 100 ml of 20 mM phosphate buffer (pH 6.9) to obtain the enzyme solution. Different concentrations of all the synthesized derivatives were prepared by dissolving them in DMSO. […] 1 ml of enzyme solution was mixed with 1 ml of each synthesized derivatives and incubated for 10 min at 25 °C. Then 1 ml of this mixture was mixed with 1 ml of soluble potato starch solution in a tube and incubated for 10 min at 25 °C. Then tubes were closed after adding 1 ml of color reagent and placed into water bath for 15 min at 85 °C. The reaction mixture was removed from water bath after 15 min. After cooling, the reaction mixture was diluted with 9 ml of distilled water and the absorbance was taken at 540 nm in UV spectrophotometer. Blank solution was prepared by replacing the enzyme solution with buffer solution and absorbance was taken. Measurement of control was performed in identical manner by replacing the synthesized derivatives in 1 ml of DMSO.
Percentage inhibition of α-amylase enzyme was calculated by using following formula:1 %Inhibition=ABlank-ASample/ABlank×100

[3] = test system: Salmonella typhi; test: Antimicrobial activity, tube dilution method (MIC); type: cell-based; conditions: Salmonella enterica, TYPHI, 24 h, read-out: Minimum inhibitory concentration, S. typhi
Method: (§1) The in vitro antimicrobial activity of synthesized compounds was done by tube dilution method against Gram-positive bacteria: Staphylococcus aureus, Bacillus subtilis, Gram-negative bacteria: Escherichia coli, Klebsiella pneumonia, Salmonella typhi and fungal: Candida albicans and Aspergillus niger strains using cefadroxil and fluconazole as standard. Dilutions of test and standard compounds were prepared in double strength nutrient broth for bacterial strains and Sabouraud dextrose broth for fungal strains.

[4] = test system: Klebsiella pneumonia; test: Antimicrobial activity, tube dilution method (MIC); type: cell-based; conditions: Klebsiella pneumoniae, 24 h, read-out: Minimum inhibitory concentration, K. pneumonia, tube dilution, 37 ± 1 °C, 24 h
Method: as §1

[5] = test system: Staphylococcus aureus; test: Antimicrobial activity, tube dilution method (MIC); type: cell-based; conditions: 24 h, read-out: Minimum inhibitory concentration, S. aureus, tube dilution, 37 ± 1 °C, 24 h
Method: as §1

[6] = test system: Bacillus subtilis; test: Antimicrobial activity, tube dilution method (MIC); type: cell-based; conditions: 24 h, read-out: Minimum inhibitory concentration, B. subtilis, tube dilution, 37 ± 1 °C, 24 h
Method: as §1

[7] = test system: Escherichia coli; test: Antimicrobial activity, tube dilution method (MIC); type: cell-based; conditions: 24 h, read-out: Minimum inhibitory concentration, E. coli, tube dilution, 37 ± 1 °C, 24 h
Method: as §1

[8] = test system: Candida albicans; test: Antifungal activity, tube dilution method (MIC); type: cell-based; conditions: 48 h, read-out: Minimum inhibitory concentration, C. albicans, tube dilution, 37 ± 1 °C, 48 h
Method: as §1

[9] = test system: Aspergillus niger; test: Antifungal activity, tube dilution method (MIC); type: cell-based; conditions: 168 h, read-out: Minimum inhibitory concentration, A. niger, tube dilution, 25 ± 1 °C, 7 days
Method: as §1

Row | Compound | % inhibition (DPPH), 25 μg/ml [1] | % inhibition (DPPH), 50 μg/ml [1] | % inhibition (DPPH), 75 μg/ml [1] | % inhibition (DPPH), 100 μg/ml [1] | IC50 (antioxidant activity, DPPH) [1] | % inhibition (α-amylase), 25 μg/ml [2] | % inhibition (α-amylase), 50 μg/ml [2] | % inhibition (α-amylase), 75 μg/ml [2] | % inhibition (α-amylase), 100 μg/ml [2] | IC50 (antidiabetic activity, α-amylase) [2] | MIC [3] | MIC [4] | MIC [5] | MIC [6] | MIC [7] | MIC [8] | MIC [9] | melting point
1 | CCN(CC)c1ccc(/C=C2/SC(=O)NC2=O)cc1 [Compound 8] | 26.93% | 33.78% | 62.23% | 65.78% | 31.15 µg/mL (≈ 113 µM) | 20.79% | 39.54% | 40.89% | 93.17% | 56.89 µg/mL (≈ 206 µM) | 4.5 mM (≈ 1240 µg/mL) | 4.5 mM (≈ 1240 µg/mL) | 4.5 mM (≈ 1240 µg/mL) | 4.5 mM (≈ 1240 µg/mL) | 5 mM (≈ 1380 µg/mL) | 4.5 mM (≈ 1240 µg/mL) | 4.5 mM (≈ 1240 µg/mL) | 158 to 160 °C
2 | O=C1NC(=O)C(=Cc2ccc(Br)cc2)S1 [Compound 9, 5-(4-Bromobenzylidene)thiazolidine-2,4-dione] | 36.83% | 45.41% | 71.51% | 87.34% | 27.66 µg/mL (≈ 97.3 µM) | 24.73% | 53.78% | 68.34% | 89.37% | 41.67 µg/mL (≈ 147 µM) | 4.3 mM (≈ 1220 µg/mL) | 8.79 mM (≈ 2500 µg/mL) | 4.3 mM (≈ 1220 µg/mL) | 8.79 mM (≈ 2500 µg/mL) | 8.79 mM (≈ 2500 µg/mL) | 4.3 mM (≈ 1220 µg/mL) | 4.3 mM (≈ 1220 µg/mL) | 150 to 152 °C
3 | COc1cccc(C=C2SC(=O)NC2=O)c1 [Compound 16, 5-(3-Methoxybenzylidene)thiazolidine-2,4-dione] | 30.65% | 43.62% | 79.11% | 87.97% | 39.77 µg/mL (≈ 169 µM) | 27.52% | 43.73% | 57.27% | 85.23% | 40.92 µg/mL (≈ 174 µM) | 5.31 mM (≈ 1250 µg/mL) | 10.6 mM (≈ 2490 µg/mL) | 5.31 mM (≈ 1250 µg/mL) | 5.31 mM (≈ 1250 µg/mL) | 5.31 mM (≈ 1250 µg/mL) | 5.31 mM (≈ 1250 µg/mL) | 5.31 mM (≈ 1250 µg/mL) | 217 to 220 °C
4 | CN(C)c1ccc(C=C2SC(=O)NC2=O)cc1 [Compound 6, 5-(4-(Dimethylamino)benzylidene)thiazolidine-2,4-dione] | 19.54% | 38.93% | 62.65% | 75.82% | 48.13 µg/mL (≈ 194 µM) | 33.56% | 49.45% | 50.78% | 97.15% | 37.35 µg/mL (≈ 150 µM) | 5 mM (≈ 1240 µg/mL) | 10.1 mM (≈ 2500 µg/mL) | 5 mM (≈ 1240 µg/mL) | 5 mM (≈ 1240 µg/mL) | 4.99 mM (≈ 1240 µg/mL) | 20.1 mM (≈ 4990 µg/mL) | 10.1 mM (≈ 2500 µg/mL) | 147 to 150 °C
5 | O=C1NC(=O)C(=Cc2cccc([N+](=O)[O-])c2)S1 [Compound 7, 5-(3-Nitrobenzylidene)thiazolidine-2,4-dione] | 20.51% | 35.61% | 79.74% | 86.04% | 55.23 µg/mL (≈ 221 µM) | 24.72% | 35.71% | 64.87% | 97.15% | 56.09 µg/mL (≈ 224 µM) | 4.99 mM (≈ 1250 µg/mL) | 4.99 mM (≈ 1250 µg/mL) | 4.99 mM (≈ 1250 µg/mL) | 9.9 mM (≈ 2480 µg/mL) | 4.99 mM (≈ 1250 µg/mL) | 4.99 mM (≈ 1250 µg/mL) | 9.9 mM (≈ 2480 µg/mL) | 110 to 113 °C
6 | O=Cc1ccc(C=C2SC(=O)NC2=O)cc1 [Compound 21, 4-((2,4-Dioxothiazolidin-5-ylidene)methyl)benzaldehyde] | 17.91% | 41.64% | 75.98% | 92.32% | 55.51 µg/mL (≈ 238 µM) | 21.98% | 47.28% | 70.56% | 74.76% | 38.65 µg/mL (≈ 166 µM) | 5.3 mM (≈ 1240 µg/mL) | 10.7 mM (≈ 2500 µg/mL) | 5.3 mM (≈ 1240 µg/mL) | 5.3 mM (≈ 1240 µg/mL) | 5.3 mM (≈ 1240 µg/mL) | 5.3 mM (≈ 1240 µg/mL) | 5.3 mM (≈ 1240 µg/mL) | 147 to 150 °C
